The test system of the assay is Plutella xylostella. The experiment in a line: Plutella xylostella, leaf dip method. It is filed as in vivo. The note with it: foliar, cabbage leaf dip, second instar larvae, 72 h after release, dead + moribund vs untreated control, read-out: percent mortality. The procedure:
The leaf dip method was used for testing, wherein the required quantity of the compound was weighed and dissolved in a tube containing solvent solution. The tube was put on a vortex at 2000 rpm for 90 min for proper mixing, then diluted with 0.01% Triton-X solution to get the desired test concentration. Cabbage leaves were dipped in the compound solution for 10 seconds, shade dried for 20 min and then transferred into the cells of bioassay trays. A single second instar larva was released into each cell and the tray was covered with a lid. The bio-assay trays were then kept under laboratory conditions at a temperature of 25° C. and a relative humidity of 70%. Observations on dead, moribund and alive larvae were recorded 72 h after the release. Percent mortality was calculated by combining dead and moribund larvae and comparing the result to the one of the untreated control.
As for `CCS(=O)(=O)c1ccc(-c2ccc(Cl)cc2)nc1-c1cnc2nc(C(F)(F)F)nn2c1` [Compound 47, 6-(6-(4-chlorophenyl)-3-(ethylsulfonyl)pyridin-2-yl)-2-(trifluoromethyl)-[1,2,4]triazolo[1,5-a]pyrimidine], the mortality at 300 ppm was no less than 70%.

Take `CCS(=O)(=O)c1cc(C)cnc1-c1ccn2nc(C(F)(F)F)cc2n1` [Compound 164, 5-(3-(ethylsulfonyl)-5-methylpyridin-2-yl)-2-(trifluoromethyl)pyrazolo[1,5-a]pyrimidine]: the mortality at 300 ppm was no less than 70%.

Consider `CCS(=O)(=O)c1cc(C2CC2)cnc1-c1ccn2nc(C(F)(F)F)nc2n1` [Compound 142, 5-(5-cyclopropyl-3-(ethylsulfonyl)pyridin-2-yl)-2-(trifluoromethyl)-[1,2,4]triazolo[1,5-a]pyrimidine], for which the mortality at 300 ppm was no less than 70%.

In the case of `CCS(=O)(=O)c1cc(N)cnc1-c1ccn2nc(C(F)(F)F)cc2n1` [Compound 223, 5-(ethylsulfonyl)-6-(2-(trifluoromethyl)pyrazolo[1,5-a]pyrimidin-5-yl)pyridin-3-amine], the mortality at 300 ppm was no less than 70%.

Regarding `CCS(=O)(=O)c1cc(-c2ccc(F)cc2)cnc1-c1ccn2nc(C(F)(F)F)nc2n1` [Compound 105, 5-(3-(ethylsulfonyl)-5-(4-fluorophenyl)pyridin-2-yl)-2-(trifluoromethyl)-[1,2,4]triazolo[1,5-a]pyrimidine], the mortality at 300 ppm is no less than 70%.

`CCSc1ccc(C)nc1-c1ccn2nc(C(F)(F)F)cc2n1` [Compound 181, 5-(3-(ethylthio)-6-methylpyridin-2-yl)-2-(trifluoromethyl)pyrazolo[1,5-a]pyrimidine]: the mortality at 300 ppm is no less than 70%.

Regarding `CCS(=O)(=O)c1ccc(C)nc1-c1ccn2nc(C(F)(F)F)nc2n1` [Compound 183, 5-(3-(ethylsulfonyl)-6-methylpyridin-2-yl)-2-(trifluoromethyl)-[1,2,4]triazolo[1,5-a]pyrimidine], the mortality at 300 ppm was no less than 70%.

For `CCS(=O)(=O)c1cc(NC)cnc1-c1ccn2nc(C(F)(F)F)cc2n1` [Compound 218, 5-(ethylsulfonyl)-N-methyl-6-(2-(trifluoromethyl)pyrazolo[1,5-a]pyrimidin-5-yl)pyridin-3-amine], the mortality at 300 ppm was no less than 70%.

As for `CCS(=O)(=O)c1ccc(-n2cncn2)nc1-c1cnc2cc(C(F)(F)F)nn2c1` [Compound 54, 6-(3-(ethylsulfonyl)-6-(1H-1,2,4-triazol-1-yl)pyridin-2-yl)-2-(trifluoromethyl)pyrazolo[1,5-a]pyrimidine], the mortality at 300 ppm is no less than 70%.

Take `CCS(=O)(=O)c1ccc(-n2ccc(F)n2)nc1-c1ccn2nc(C(F)(F)F)cc2n1` [Compound 140, 5-(3-(ethylsulfonyl)-6-(3-fluoro-1H-pyrazol-1-yl)pyridin-2-yl)-2-(trifluoromethyl)pyrazolo[1,5-a]pyrimidine]: the mortality at 300 ppm was no less than 70%.

With `CCS(=O)(=O)c1cc(-c2cc(Cl)cc(Cl)c2)cnc1-c1ncc2nc(C(F)(F)F)n(C)c2n1` [Compound 128, 2-(5-(3,5-dichlorophenyl)-3-(ethylsulfonyl)pyridin-2-yl)-9-methyl-8-(trifluoromethyl)-9H-purine], the mortality at 300 ppm was no less than 70%.

As to `CCS(=O)(=O)c1cc(CC#N)cnc1-c1ccn2nc(C(F)(F)F)cc2n1` [Compound 232, 2-(5-(ethylsulfonyl)-6-(2-(trifluoromethyl)pyrazolo[1,5-a]pyrimidin-5-yl)pyridin-3-yl)acetonitrile], the mortality at 300 ppm was no less than 70%.

For `CCS(=O)(=O)c1cc(-c2ccc(OC(F)(F)C(F)F)cc2)cnc1-c1ccn2nc(C(F)(F)F)nc2n1` [Compound 104, 5-(3-(ethylsulfonyl)-5-(4-(1,1,2,2-tetrafluoroethoxy)phenyl)pyridin-2-yl)-2-(trifluoromethyl)-[1,2,4]triazolo[1,5-a]pyrimidine], the mortality at 300 ppm is no less than 70%.

Take `CCS(=O)(=O)c1ccc(C2CC2)nc1-c1ccn2nc(C(F)(F)F)cc2n1` [Compound 171, 5-(6-cyclopropyl-3-(ethylsulfonyl)pyridin-2-yl)-2-(trifluoromethyl)pyrazolo[1,5-a]pyrimidine]: the mortality at 300 ppm is no less than 70%.

As to `CCSc1cc(-c2ccc(OC(F)(F)C(F)F)cc2)cnc1-c1ccn2nc(C(F)(F)F)cc2n1` [Compound 191, 5-(3-(ethylthio)-5-(4-(1,1,2,2-tetrafluoroethoxy)phenyl)pyridin-2-yl)-2-(trifluoromethyl)pyrazolo[1,5-a]pyrimidine], the mortality at 300 ppm is no less than 70%.

As to `CCS(=O)(=O)c1cc(NC(=O)C2CC2)cnc1-c1ccn2nc(C(F)(F)F)cc2n1` [Compound 233, N-(5-(ethylsulfonyl)-6-(2-(trifluoromethyl)pyrazolo[1,5-a]pyrimidin-5-yl)pyridin-3-yl)cyclopropanecarboxamide], the mortality at 300 ppm is no less than 70%.

With `CCS(=O)(=O)c1ccc(-c2ccc(OC(F)(F)C(F)F)cc2)nc1-c1ccn2nc(C(F)(F)F)cc2n1` [Compound 28, 5-(3-(ethylsulfonyl)-6-(4-(1,1,2,2-tetrafluoroethoxy)phenyl)pyridin-2-yl)-2-(trifluoromethyl)pyrazolo[1,5-a]pyrimidine], the mortality at 300 ppm is no less than 70%.

`CCSc1cc(-n2cncn2)cnc1-c1ccn2nc(C(F)(F)F)cc2n1` [Compound 32, 5-(3-(ethylthio)-5-(1H-1,2,4-triazol-1-yl)pyridin-2-yl)-2-(trifluoromethyl)pyrazolo[1,5-a]pyrimidine]: the mortality at 300 ppm was no less than 70%.

On to `CC#Cc1cnc(-c2ccn3nc(C(F)(F)F)cc3n2)c(S(=O)(=O)CC)c1` [Compound 178, 5-(3-(ethylsulfonyl)-5-(prop-1-yn-1-yl)pyridin-2-yl)-2-(trifluoromethyl)pyrazolo[1,5-a]pyrimidine], for which the mortality at 300 ppm was no less than 70%.

As to `CCS(=O)(=O)c1cc(-c2nccs2)cnc1-c1ccn2nc(C(F)(F)F)nc2n1` [Compound 132, 2-(5-(ethylsulfonyl)-6-(2-(trifluoromethyl)-[1,2,4]triazolo[1,5-a]pyrimidin-5-yl)pyridin-3-yl)thiazole], the mortality at 300 ppm is no less than 70%.

In the case of `CCS(=O)(=O)c1cc(-c2ccc(Cl)c(F)c2)cnc1-c1ccn2nc(C(F)(F)F)nc2n1` [Compound 162, 5-(5-(4-chloro-3-fluorophenyl)-3-(ethylsulfonyl)pyridin-2-yl)-2-(trifluoromethyl)-[1,2,4]triazolo[1,5-a]pyrimidine], the mortality at 300 ppm was no less than 70%.

On to `CCS(=O)(=O)c1ccc(/C=C/C2CC2)nc1-c1ccn2nc(C(F)(F)F)cc2n1` [Compound 216, (E)-5-(6-(2-cyclopropylvinyl)-3-(ethylsulfonyl)pyridin-2-yl)-2-(trifluoromethyl)pyrazolo[1,5-a]pyrimidine], for which the mortality at 300 ppm was no less than 70%.

`CCOc1ccc(S(=O)(=O)CC)c(-c2ccn3nc(C(F)(F)F)cc3n2)n1` [Compound 227, 5-(6-ethoxy-3-(ethylsulfonyl)pyridin-2-yl)-2-(trifluoromethyl)pyrazolo[1,5-a]pyrimidine]: the mortality at 300 ppm was no less than 70%.

Regarding `CCS(=O)(=O)c1cc(-c2cc(C(F)(F)F)nn2C)cnc1-c1ccn2nc(C(F)(F)F)cc2n1` [Compound 78, 5-(3-(ethylsulfonyl)-5-(1-methyl-3-(trifluoromethyl)-1H-pyrazol-5-yl)pyridin-2-yl)-2-(trifluoromethyl)pyrazolo[1,5-a]pyrimidine], the mortality at 300 ppm was no less than 70%.

Turning to `CCS(=O)(=O)c1ccc(-c2cccc(C#N)c2)nc1-c1ccn2nc(C(F)(F)F)cc2n1` [Compound 23, 3-(5-(ethylsulfonyl)-6-(2-(trifluoromethyl)pyrazolo[1,5-a]pyrimidin-5-yl)pyridin-2-yl)benzonitrile], the mortality at 300 ppm is no less than 70%.

Take `CCS(=O)(=O)c1cc(-c2cc(Cl)cc(Cl)c2)cnc1-c1ccn2nc(C(F)(F)F)nc2n1` [Compound 102, 5-(5-(3,5-dichlorophenyl)-3-(ethylsulfonyl)pyridin-2-yl)-2-(trifluoromethyl)-[1,2,4]triazolo[1,5-a]pyrimidine]: the mortality at 300 ppm was no less than 70%.

With `CCS(=O)(=O)c1cc(-n2cncn2)cnc1-c1ccn2nc(C(F)(F)F)nc2n1` [Compound 146, 5-(3-(ethylsulfonyl)-5-(1H-1,2,4-triazol-1-yl)pyridin-2-yl)-2-(trifluoromethyl)-[1,2,4]triazolo[1,5-a]pyrimidine], the mortality at 300 ppm is no less than 70%.

Consider `CCS(=O)(=O)c1cc(OCC2CC2)cnc1-c1ccn2nc(C(F)(F)F)nc2n1` [Compound 161, 5-(5-(cyclopropylmethoxy)-3-(ethylsulfonyl)pyridin-2-yl)-2-(trifluoromethyl)-[1,2,4]triazolo[1,5-a]pyrimidine], for which the mortality at 300 ppm was no less than 70%.

Turning to `CCS(=O)(=O)c1cc(-c2ccc(C(F)(F)F)cc2)cnc1-c1ncc2nc(C(F)(F)F)n(C)c2n1` [Compound 129, 2-(3-(ethylsulfonyl)-5-(4-(trifluoromethyl)phenyl)pyridin-2-yl)-9-methyl-8-(trifluoromethyl)-9H-purine], the mortality at 300 ppm is no less than 70%.

The values above are taken from US12514251B2, “Fused heterocyclic compounds and their use as pest control agents” (priority 2020, dated 2026).
